Results from patent US4731370A, “Pyridyl ester containing 1,4-dihydropyridine derivatives and salts thereof and pharmaceutical composition containing the same” (Toyama Chemical Co., Ltd., priority 1984, dated 1988).
Where a name gives a salt, the structure may show the parent alone.

Experiments:
[1] = tested on: coronary vessel (isolated guinea pig heart); assay: Coronary vasodilating activity (isolated perfused guinea pig heart, coronary effluent); parameters: species or system guinea pig (Hartley strain); settings: Langendorff perfusion, 0.1 ml into aorta, hydrochloride
Experimental: (§1) The compounds of this invention to be tested were used in the form of a hydrochloride.
The heart of a guinea pig (Hartley strain, male, 500-700 g, 3 heads per group) was isolated and set in the Landendorff perfusing apparatus. About 0.5% defibrinated blood was fed to the apparatus, and the Krebs bicarbonate solution, into which a mixed gas consisting of 95% of O2 and 5% of CO2 had been bubbled was perfused over the heart, after which a 1 mg/ml solution of the test compound in an aqueous solution containing 10% by volume of dimethylsulfoxide and 10% of polyoxyethylfatty acid glyceride [Cremophor EL manufactured by Sigma] was prepared, diluted with a saline solution to the desired concentration, and then administered into the heart in an amount of 0.1 ml through the rubber tube attached to the cannula inserted retrogressively into the aorta. The vasodilating activity was determined by measuring the amount of the solution effluent from the coronary vessel after passing through the aorta by means of an electric drop counter (universal drop counter manufactured by Natsume Seisakusho) and indicated as ED50 value which is the amount necessary for the amount of the effluent solution to increase 50% as compared with those before addition of the test compound.

[2] = tested on: mouse pulmonary infraction model; assay: Antithrombosis activity, mouse pulmonary infraction model, prevention of death and paralysis (0.10 ml epinephrine/collagen); type: in vivo, mouse (ICR strain); settings: Mus musculus, po, 1 h, read-out: Preventive percentage of death + paralysis for 10 minutes or more
Experimental: as §1
According to the G. DiMinno and M. J. Silver method [J. Pharmacol. Exp. Therap., 225 (1) 57-60 (1983)], a solution of the compound to be tested was orally administered to a mouse (ICR strain, male, 4 weeks old), and 0.15 ml of a mixed solution of epinephrine (100 μM) and collagen (150 μg/ml) was intravenously administered to the mouse after one hour, after which the paralytic time was measured. Comparing the paralytic time of the control group, the paralytic time-shortening percentage due to the compound to be tested was determined. The results obtained are shown in Table 4, in which the case where the paralytic time was 15 minutes was calculated as death.
Moreover, the same experiment was repeated, except that 0.10 ml of a mixed solution of epinephrine (100 μM) and collagen (150 μg/ml) was intravenously administered to the mouse and the effect of preventing the appearance of death and a case where the paralytic time was 10 minutes or more was checked and the results thereof are shown in Table 5.
(§2) The test compounds shown in Table 4 were adjusted to the desired concentrations with water, and the test compounds shown in Table 5 were adjusted to a concentration of 5 mg/ml with an aqueous solution containing 10% by volume of each of dimethyl sulfoxide and Cremophor, and then diluted with water to the desired concentrations.

[3] = tested on: vertebral artery blood flow of a dog; assay: Vertebral artery blood flow increasing activity; type: in vivo, dog (mongrel); settings: i.v., amount with same activity as 1 mg/kg (i.v.) papaverine hydrochloride, ratio to papaverine hydrochloride
Experimental: as §1
The vertebral artery blood flow of a dog (mongrel, 12-22 kg, 2-3 heads per group) anesthetized with pentobarbital sodium (30 mg/kg, i.v.) was measured by means of an electromagnetic flow meter (MFV-2100 manufactured by Nihon Kohden Kogyo).
The test compounds 1, 3 and 10 were adjusted to a concentration of 1 mg/ml with distilled water, and then diluted with a saline solution to the desired concentrations, after which the thus diluted solutions were intravenously administered, and the test compounds 12, 15, 18, 19, 20, 24, 29, 30, 32 and 33 were formed into solutions in the same manner as in Item 1 above and then intravenously administered.

[4] = tested on: mouse pulmonary infraction model; assay: Antithrombosis activity, mouse pulmonary infraction model, paralytic time-shortening (0.15 ml epinephrine/collagen); type: in vivo, mouse (ICR strain); settings: 1 h, oral, challenge after one hour, 10 mice, read-out: Paralytic time-shortening percentage
Experimental: as §1
Comparing the paralytic time of the control group, the paralytic time-shortening percentage due to the compound to be tested was determined.
as §2

[5] = tested on: Thromboxane-Synthesizing Enzyme; assay: Thromboxane-synthesizing enzyme-inhibitory activity (MDA production in platelet-rich plasma after oral dosing); type: in vivo, rat (Wistar strain); settings: rat, 3 mg/kg, blood after one hour
Experimental: as §1
To a rat (Wistar strain, male, 300-350 g, 4 heads per group) which had been starved overnight was orally administered a test compound solution, and blood was collected from the abdominal aorta using citric acid after one hour. Two milliliters of a 1×10^9 /ml platelet-rich plasma (PRP) was preincubated at 37° C. for 2 minutes. Subsequently, 0.1 ml of 10 mM sodium archidonate was added, and the resulting mixture was subjected to reaction for 6 minutes, after which indomethacin was added thereto to terminate the reaction. The reaction mixture was subjected to deproteinization treatment and reacted with thiobarbituric acid (TBA) reagent, after which the reaction mixture was subjected to extraction with 3 ml of n-butanol. The resulting extract was subjected to colorimetry (λ=532 nm) to determine the amount of malondialdehyde (MDA) produced. As to the platelet-poor plasma (PPP) obtained from the same rat as above, the same procedure as above was repeated to determine the amount of MDA produced, and the difference between the two is indicated as MDA value. Comparing with the MDA values of the control group, the MDA production-inhibition (%) was determined.
as §2, with “1-9” for “shown in Table 4”, “water” for “water,”, “11-33 and nicardipine” for “shown in Table 5”, “10%” for “10% by volume”, “Cremophor” for “Cremophor,”

[6] = Acute toxicity, intravenous, mice; settings: mouse, in vivo, mice (ICR, male, 4 weeks old, 5 per group)

| Compound | ED50 (amount necessary for the amount of the effluent solution to increase 50%) [1] | responders at 10 mg/kg [2] | Effect ratio [3] | inhibition in vivo at 10 mg/kg [4] | MDA production-inhibition [5] | responders at 30 mg/kg [2] | inhibition in vivo at 300 mg/kg ([4]; 300 mg/kg) | LD50 [6] |
| --- | --- | --- | --- | --- | --- | --- | --- | --- |
| COC(=O)C1=C(C)NC(C)=C(C(=O)OCCN(C)Cc2ccccc2)C1c1cccc([N+](=O)[O-])c1 (stereo not shown) [Nicardipine, 3-[2-(N-benzyl-N-methylamino)ethyl]5-methyl 2,6-dimethyl-4-(3-nitrophenyl)-1,4-dihydropyridine-3,5-dicarboxylate hydrochloride, reference compound] | 0.042 μg/i.c. | 0% | 220 | 6.3% | 2.7% |  |  |  |
| C/C(=C\c1ccc(Cc2cccnc2)cc1)C(=O)O [OKY-1581, Sodium (E)-3-[4-(pyridin-3-ylmethyl)phenyl]-2-methylpropenoate, reference compound] |  |  |  |  |  | 10% | 9.5% |  |
| COC(=O)C1=C(C)NC(C)=C(C(=O)OCCN(C)C/C(C)=C/c2ccc(Cc3cccnc3)cc2)C1c1cccc([N+](=O)[O-])c1 (stereo not shown) [compound 2] |  |  |  | 84.1% | 63.2% |  |  | ≥ 30 mg/kg |
| CC1=C(C(=O)OCCN(C)C/C=C/c2ccc(Cc3cccnc3)cc2)C(c2cccc([N+](=O)[O-])c2)C(C(=O)OC(C)C)=C(C)N1 (stereo not shown) [compound 7] |  |  |  | 36.4% | 52.8% |  |  | ≥ 30 mg/kg |
| CC1=C(C(=O)OCCNC/C(C)=C/c2ccc(Cc3cccnc3)cc2)C(c2cccc([N+](=O)[O-])c2)C(C(=O)OC(C)C)=C(C)N1 (stereo not shown) [compound 8] |  |  |  | 47.9% | 64.9% |  |  | ≥ 30 mg/kg |
| CCOC(=O)C1=C(C)NC(C)=C(C(=O)OCCN(C)C/C(C)=C/c2ccc(Oc3cccnc3)cc2)C1c1cccc([N+](=O)[O-])c1 (stereo not shown) [compound 10] |  |  | 641 | 79.2% |  |  |  | ≥ 30 mg/kg |
